We go through 32 compounds from US20250162989A1, “USP30 INHIBITORS AND USES THEREOF” (Vincere Biosciences, Inc., priority 2021, published 2025).

One assay has as its target USP30 (Homo sapiens (Human), UniProt Q70CQ3). In words: Dundee MALDI-TOF mass spectrometry assay (K48-linked diubiquitin cleavage). Conditions: USP30 25 ng/μl, K48-linked diubiquitin 5.6 μM. The format is biochemical. The procedure: USP30 was diluted in a buffer containing 40 mM Tris, 0.01% BSA, 1 mM DTT and K48 in 40 mM Tris, 0.01% BSA.
The compounds were pre-incubated with the USP30 for 5 mins at room temp before the K48 dimer addition. The assay mixture was then incubated for 45 mins at room temp. The assay was stopped by the addition of TFA to a final concentration of 2% (v/v).
Acidified samples of the DUB assays were mixed with 0.5 mM 15N-ubiquitin and then with one part of 2% (v/v) TFA and one part of 2.5 DHAP matrix solution (7.6 mg of 2.5 DHAP in […] ethanol and […] of an aqueous 12 mg ml 1 diammonium hydrogen citrate).

For assay [1], the target named is recombinant USP30 (amino acids 57-517 of the human sequence) (Homo sapiens (Human), UniProt Q70CQ3). Briefly: In vitro USP30 biochemical assay (Ubiquitin-Rhodamine substrate). The note with it: fluorescence. The procedure:
In vitro biochemical assay to establish the potency of compounds for USP30 inhibition: a 384-well plate assay using a fluorophore tagged substrate of USP30 was used for in vitro screening of compounds. Each compound was tested at
10 different concentrations (0.5 to 10,000 nM) in duplicate wells. […] Data were analyzed using Graph Pad Prism software with a four-parameter (floating slope) fit to log concentration data to determine IC50s.

[2] abbreviates: 1.5 nM recombinant USP30, 25 nM Ubiquitin-Rhodamine.
Setting [3] is: […] recombinant USP30, 25 nM Ubiquitin-Rhodamine.

Read-outs that look alike come from different tables or passages of the source.

USP30, sequence (Q70CQ3 whole entry): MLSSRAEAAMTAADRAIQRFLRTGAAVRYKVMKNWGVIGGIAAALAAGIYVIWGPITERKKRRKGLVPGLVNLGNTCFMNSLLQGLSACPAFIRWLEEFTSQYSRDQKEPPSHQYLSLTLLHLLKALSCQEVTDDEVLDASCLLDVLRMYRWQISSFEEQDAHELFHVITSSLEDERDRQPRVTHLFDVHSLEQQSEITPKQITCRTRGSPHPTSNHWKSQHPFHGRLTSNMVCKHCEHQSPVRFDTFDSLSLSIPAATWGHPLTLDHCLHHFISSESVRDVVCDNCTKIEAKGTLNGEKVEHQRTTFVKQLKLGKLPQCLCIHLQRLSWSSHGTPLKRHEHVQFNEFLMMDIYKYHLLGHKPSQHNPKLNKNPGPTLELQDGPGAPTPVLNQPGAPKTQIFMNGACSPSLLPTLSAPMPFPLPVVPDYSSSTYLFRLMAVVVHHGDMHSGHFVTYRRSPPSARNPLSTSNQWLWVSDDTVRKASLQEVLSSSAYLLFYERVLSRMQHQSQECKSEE
recombinant USP30 (amino acids 57-517 of the human sequence), sequence (Q70CQ3 57-517): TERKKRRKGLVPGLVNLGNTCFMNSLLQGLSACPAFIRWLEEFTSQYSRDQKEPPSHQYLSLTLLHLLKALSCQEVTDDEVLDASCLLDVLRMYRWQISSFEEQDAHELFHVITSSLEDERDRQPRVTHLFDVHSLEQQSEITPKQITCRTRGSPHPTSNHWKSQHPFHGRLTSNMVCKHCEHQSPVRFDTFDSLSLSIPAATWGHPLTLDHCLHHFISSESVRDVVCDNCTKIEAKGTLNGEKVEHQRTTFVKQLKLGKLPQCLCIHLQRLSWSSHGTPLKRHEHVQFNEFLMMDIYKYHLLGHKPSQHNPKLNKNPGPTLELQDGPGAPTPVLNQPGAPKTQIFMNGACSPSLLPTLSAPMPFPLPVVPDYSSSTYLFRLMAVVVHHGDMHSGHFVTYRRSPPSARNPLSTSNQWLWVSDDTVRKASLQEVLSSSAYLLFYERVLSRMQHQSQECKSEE

What is called IC50 is the point on the concentration scale where inhibition reaches its midpoint. On to `O=C(N[C@@H](Cc1ccccc1)C(=O)Nc1ccc(S(=O)(=O)NC2(CO)CC2)nc1)c1ccc(F)cc1` [Compound I-150], for which the IC50 at USP30 (read-out: USP30 IC50 μM (avg)) was less than 0.05 µM; in assay [1] (setting [2]) it was 0.05 to 1 µM.

Turning to `CC(C)(C)NS(=O)(=O)c1ccc(NC(=O)[C@H](Cc2ccccc2)NC(=O)c2ccon2)cc1` [Compound I-167], the IC50 (on USP30 (read-out: USP30 IC50 μM (avg)); in assay [1] (setting [2])) was 0.05 to 1 µM in each case.

For `O=C(N[C@@H](CC1CCOCC1)C(=O)Nc1ccc(S(=O)(=O)NC2CCC2)nc1)c1ccc(F)cc1` [Compound I-91], the IC50 is less than 0.05 µM at USP30 (read-out: USP30 IC50 μM (avg)) and 0.05 to 1 µM in assay [1] (setting [2]).

Regarding `COc1cc(NC(=O)[C@H](Cc2ccccc2)NC(=O)c2ccc(F)cc2)ccc1S(=O)(=O)N[C@H](C)CO` [Compound I-137], the IC50 is less than 0.05 µM on USP30 (read-out: USP30 IC50 μM (avg)) and 0.05 to 1 µM in assay [1] (setting [2]).

Regarding `CC(C)(C)NS(=O)(=O)c1ccc(NC(=O)[C@H](Cc2ccccc2)NC(=O)c2ccc(F)cc2)cc1C(F)(F)F` [Compound I-70, (S)—N-(1-(4-(N-tert-butylsulfamoyl)-3-(trifluoromethyl)phenylamino)-1-oxo-3-phenylpropan-2-yl)-4-fluorobenzamide], the IC50 (at USP30 (read-out: IC50); in assay [1] (setting [3])) was less than 0.05 µM each time.

For `CC(C)(CO)NS(=O)(=O)c1ccc(NC(=O)C(CC2CCNCC2)NC(=O)c2ccc(F)cc2)cc1` (stereo not shown) [Compound I-72], the IC50 (at USP30 (read-out: USP30 IC50 μM (avg)); in assay [1] (setting [2])) was 0.05 to 1 µM throughout.

As to `COCCN1CCC(C[C@H](NC(=O)c2ccc(F)cc2)C(=O)Nc2ccc(S(=O)(=O)NC(C)(C)C)cc2)CC1` [Compound I-173], the IC50 (on USP30 (read-out: USP30 IC50 μM (avg)); in assay [1] (setting [3])) was less than 0.05 µM in each case.

Turning to `Cn1ccc(N2CCC(C[C@H](NC(=O)c3ccc(F)cc3)C(=O)Nc3ccc(S(=O)(=O)NC(C)(C)C)nc3)CC2)n1` [Compound I-293], the concentration for half-maximal inhibition (IC50) (on USP30 (read-out: USP30 IC50 μM (avg)); in assay [1] (setting [3])) was less than 0.05 µM throughout.

`O=C(N[C@@H](CC1CCOCC1)C(=O)Nc1ccc(S(=O)(=O)NC2CCCC2)nc1)c1ccc(F)cc1` [Compound I-97]: the IC50 (at USP30 (read-out: USP30 IC50 μM (avg)); in assay [1] (setting [3])) was less than 0.05 µM throughout.

As for `O=C(N[C@@H](Cc1ccccc1)C(=O)Nc1ccc(S(=O)(=O)NC23CC(C2)C3)c(C(F)(F)F)c1)c1ccc(F)cc1` [Compound I-69], the IC50 at USP30 (read-out: IC50) is less than 0.05 µM; in assay [1] (setting [2]), 0.05 to 1 µM.

Regarding `COc1cc(NC(=O)[C@H](CC2CCNCC2)NC(=O)c2ccc(F)cc2)ccc1S(=O)(=O)NC(C)(C)CO` [Compound I-159], the IC50 (at USP30 (read-out: USP30 IC50 μM (avg)); in assay [1] (setting [2])) was 0.05 to 1 µM throughout.

On to `Cn1nccc1CNS(=O)(=O)c1ccc(NC(=O)[C@H](Cc2ccccc2)NC(=O)c2ccc(F)cc2)cc1` [Compound I-205], for which the IC50 (at USP30 (read-out: USP30 IC50 μM (avg)); in assay [1] (setting [2])) was 0.05 to 1 µM in each case.

`COCCC(C)(C)NS(=O)(=O)c1ccc(NC(=O)[C@H](Cc2ccccc2)NC(=O)c2ccc(F)cc2)cc1C(F)(F)F` [Compound I-65]: the IC50 on USP30 (read-out: IC50) was less than 0.05 µM; in assay [1] (setting [2]), 0.05 to 1 µM.

Take `CC(=O)CN1CCC(C[C@H](NC(=O)c2ccc(F)cc2)C(=O)Nc2ccc(S(=O)(=O)NC(C)(C)C)cc2)CC1` [Compound I-172]: the IC50 at USP30 (read-out: USP30 IC50 μM (avg)) is less than 0.05 µM; in assay [1] (setting [2]), 0.05 to 1 µM.

Take `CC(C)(NS(=O)(=O)c1ccc(NC(=O)[C@H](Cc2ccccc2)NC(=O)c2ccc(F)cn2)cc1)C(F)(F)F` [Compound I-201]: the IC50 on USP30 (read-out: USP30 IC50 μM (avg)) is less than 0.05 µM; in assay [1] (setting [2]), 0.05 to 1 µM.

As to `CC(=O)N1CCC(CC(NC(=O)c2ccc(F)cc2)C(=O)Nc2ccc(S(=O)(=O)NC(C)(C)C)cc2)CC1` (stereo not shown) [Compound I-101], the IC50 (at USP30 (read-out: USP30 IC50 μM (avg)); in assay [1] (setting [3])) was less than 0.05 µM in each case.

`COc1cc(NC(=O)[C@H](CC2CCN(C)CC2)NC(=O)c2ccc(F)cc2)ccc1S(=O)(=O)NC(C)(C)CO` [Compound I-93]: the IC50 (on USP30 (read-out: USP30 IC50 μM (avg)); in assay [1] (setting [2])) was 0.05 to 1 µM in each case.

Take `COc1cc(NC(=O)[C@@H]2C[C@@H](c3ccccc3)CN2C(=O)c2ccc(F)cc2)ccc1S(=O)(=O)NC(C)(C)CO` [Compound I-272]: the IC50 (on USP30 (read-out: USP30 IC50 μM (avg)); in assay [1] (setting [2])) was 0.05 to 1 µM each time.

`O=C(N[C@@H](CC1CCNCC1)C(=O)Nc1ccc(S(=O)(=O)N[C@@H]2CCOC2)cc1)c1ccc(F)cc1` [Compound I-107]: the IC50 (on USP30 (read-out: USP30 IC50 μM (avg)); in assay [1] (setting [2])) was 0.05 to 1 µM in each case.

In the case of `CN1CCC(C[C@H](NC(=O)c2ccc(F)cc2)C(=O)Nc2ccc(S(=O)(=O)NC(C)(C)C(F)(F)F)cc2)CC1` [Compound I-158], the IC50 on USP30 (read-out: USP30 IC50 μM (avg)) is less than 0.05 µM; in assay [1] (setting [2]), 0.05 to 1 µM.

As for `O=C(N[C@@H](Cc1ccccc1)C(=O)Nc1ccc(S(=O)(=O)NC2(CF)CC2)cc1)c1ccc(F)cc1` [Compound I-200], the values for the IC50 (on USP30 (read-out: USP30 IC50 μM (avg)); in assay [1] (setting [2])) were less than 0.05 µM and 0.05 to 1 µM, respectively.

As to `CC(C)(C)NS(=O)(=O)c1ccc(NC(=O)[C@H](CC2CCN(C#N)CC2)NC(=O)c2ccc(F)cc2)cc1` [Compound I-165], the 50% inhibitory concentration (IC50) (on USP30 (read-out: USP30 IC50 μM (avg)); in assay [1] (setting [3])) was less than 0.05 µM throughout.

Turning to `COc1cc(NC(=O)[C@H](CC2CCNCC2)NC(=O)c2ccc(F)cc2)ccc1S(=O)(=O)NC(C)(C)CF` [Compound I-209], the IC50 (on USP30 (read-out: USP30 IC50 μM (avg)); in assay [1] (setting [2])) was 0.05 to 1 µM throughout.

Consider `O=C(N[C@@H](CC1CCNCC1)C(=O)Nc1ccc(S(=O)(=O)NC2CCOCC2)cc1)c1ccc(F)cc1` [Compound I-157], for which the IC50 (on USP30 (read-out: USP30 IC50 μM (avg)); in assay [1] (setting [2])) was 0.05 to 1 µM each time.

Take `COc1cc(NC(=O)[C@H](CC2CCOCC2)NC(=O)c2ccc(F)cc2)cnc1S(=O)(=O)NC1CCCC1` [Compound I-82]: the IC50 on USP30 (read-out: USP30 IC50 μM (avg)) is less than 0.05 µM; in assay [1] (setting [2]), 0.05 to 1 µM.

For `C[C@@H](CO)NS(=O)(=O)c1ccc(NC(=O)[C@H](Cc2ccccc2)NC(=O)c2ccc(F)cc2)cc1` [Compound I-129], the IC50 on USP30 (read-out: USP30 IC50 μM (avg)) was less than 0.05 µM; in assay [1] (setting [2]), 0.05 to 1 µM.

On to `O=C(N[C@@H](CC1CCOCC1)C(=O)Nc1ccc(S(=O)(=O)NC2CCOCC2)nc1)c1ccc(F)cc1` [Compound I-133], for which the figures for the IC50 (on USP30 (read-out: USP30 IC50 μM (avg)); in assay [1] (setting [2])) were less than 0.05 µM and 0.05 to 1 µM, respectively.

In the case of `O=C(N[C@@H](Cc1ccccc1)C(=O)Nc1ccc(S(=O)(=O)NC2COC2)c(C(F)(F)F)c1)c1ccc(F)cc1` [Compound I-68], the IC50 at USP30 (read-out: IC50) is less than 0.05 µM; in assay [1] (setting [2]), 0.05 to 1 µM.

On to `CC(C)(CF)NS(=O)(=O)c1ccc(NC(=O)[C@H](CC2CCOCC2)NC(=O)c2ccc(F)cc2)cc1` [Compound I-112], for which the IC50 (on USP30 (read-out: USP30 IC50 μM (avg)); in assay [1] (setting [3])) was less than 0.05 µM in each case.

For the compound `COc1cc(NC(=O)[C@H](CC2CCNCC2)NC(=O)c2ccc(F)cc2)ccc1S(=O)(=O)N[C@@H]1CCOC1` [Compound I-110], the IC50 (at USP30 (read-out: USP30 IC50 μM (avg)); in assay [1] (setting [2])) was 0.05 to 1 µM in each case.

In the case of `CCNS(=O)(=O)c1ccc(NC(=O)[C@H](Cc2ccccc2)NC(=O)c2ccc(F)cc2)cc1O` [Compound I-67, (S)—N-(1-(4-(N-ethylsulfamoyl)-3-hydroxyphenylamino)-1-oxo-3-phenylpropan-2-yl)-4-fluorobenzamide], the IC50 at USP30 (read-out: IC50) is less than 0.05 µM; in assay [1] (setting [2]) it was 0.05 to 1 µM.

For the compound `C[C@H](CO)NS(=O)(=O)c1ccc(NC(=O)[C@H](Cc2ccccc2)NC(=O)c2ccc(F)cc2)cc1` [Compound I-130], the IC50 (on USP30 (read-out: USP30 IC50 μM (avg)); in assay [1] (setting [3])) was less than 0.05 µM throughout.
